Reference: patent publication US20230303512A1, “MODULATORS OF MYB-MEDIATED TRANSCRIPTION AND USES THEREOF” (Massachusetts Institute of Technology, priority 2020, published 2023)

Tests used:
endogenous Myb protein = assay: Molt4-5×MRE-FLuc reporter assay; format: cell-based; conditions: 4 hours, One-Glo, normalized to DMSO; read-out: IC50 Molt4-5xMRE-FLuc Reporter
Procedure: Molt4 cells were stably transduced with a lentiviral construct encoding a 5×MRE Myb-responsive promoter driving firefly luciferase expression. The reporter output is controlled by the levels/activity of endogenous Myb protein in the Molt4 cell line.
Molt4-5×MRE-FLuc cells were plated at a density of 10000 cells/well in 25 uL of media in a 384-well plate. Compound analogs were added using a Tecan transfer tool to the wells. The plate was incubated for 4 hours, and then firefly luciferase signal measured using promega One-Glo luciferase assay system according to the manufacturer's protocols. The signal was normalized to control wells which were treated with DMSO vehicle.

Molt4-5×MRE-FLuc cells = assay: Cell-Titer Glo viability assay, Molt4-5×MRE-FLuc cells; format: cell-based; conditions: 4 hours; read-out: IC50 Cell Titer Glo Molt4-5xMRE-FLuc Viability
Procedure: Molt4-5×MRE-FLuc cells were plated at a density of 10000 cells/well in 25 uL of media in a 384-well plate. The following day, compound analogs were added using a Tecan transfer tool. The plates were incubated for 4 hours, and then the viability was measured using promega Cell-titer glo assay according to the manufacturer's protocols.

Row | SMILES | IC50 (endogenous Myb protein) [µM] | IC50 (Molt4-5×MRE-FLuc cells) [µM]
1 | COc1cccc(CNC2CCN(c3cc(C)nc(N)n3)CC2)c1 [KI-TM1-012, 4-(4-((3-methoxybenzyl)amino)piperidin-1-yl)-6-methylpyrimidin-2-amine] | > 40 | > 40
2 | Cc1cnc(N)nc1N1CCC(NCc2cccc(N3CCCC3)c2)CC1 [KI-TM1-036, 5-Methyl-4-(4-((3-(pyrrolidin-1-yl)benzyl)amino)piperidin-1-yl)pyrimidin-2-amine] | 24.9 | > 40
3 | Cc1cc(N2CCC(NCc3cccc(CN4CCCC4)c3)CC2)nc(N)n1 [KI-TM1-028, 4-Methyl-6-(4-((3-(pyrrolidin-1-ylmethyl)benzyl)amino)piperidin-1-yl)pyrimidin-2-amine] | > 40 | > 40
4 | Cc1cc(N2CCC(N(Cc3cccc(N4CCCC4)c3)C(=O)NC(C)C)CC2)nc(N)n1 [KI-TM1-003, 1-(1-(2-Amino-6-methylpyrimidin-4-yl)piperidin-4-yl)-3-isopropyl-1-(3-(pyrrolidin-1-yl)benzyl)urea] | > 40 | > 40
5 | Cc1cc(N2CCC(NCc3cccc(-n4cccc4)c3)CC2)nc(N)n1 [KI-TM1-010, 4-(4-((3-(1H-pyrrol-1-yl)benzyl)amino)piperidin-1-yl)-6-methylpyrimidin-2-amine] | 21.2 | > 40
6 | Cc1cc(N2CCC(NCc3cccc(N(C)C)c3)CC2)nc(N)n1 [KI-TM1-011, 4-(4-((3-(dimethylamino)benzyl)amino)piperidin-1-yl)-6-methylpyrimidin-2-amine] | > 40 | > 40
7 | Cc1cc(N2CCC(NCc3cccc(N4CCCC4)c3)CC2)ncn1 [KI-TM1-019, 1-(6-Methylpyrimidin-4-yl)-N-(3-(pyrrolidin-1-yl)benzyl)piperidin-4-amine] | 22.1 | > 40
8 | Cc1cc(N2CCC[C@@H](NCc3cccc(N4CCCC4)c3)C2)nc(N)n1 [KI-TM1-016R, (R)-4-Methyl-6-(3-((3-(pyrrolidin-1-yl)benzyl)amino)piperidin-1-yl)pyrimidin-2-amine] | > 40 | > 40
9 | Cc1cc(N2CCC(NCc3cccc(N4CCCC4)c3)CC2)nc(NCCO)n1 [KI-TM1-037, 2-((4-Methyl-6-(4-((3-(pyrrolidin-1-yl)benzyl)amino)piperidin-1-yl)pyrimidin-2-yl)amino)ethan-1-ol] | > 40 | > 40
10 | CC(=O)N(Cc1cccc(N2CCCC2)c1)C1CCN(c2cc(C)nc(N)n2)CC1 [KI-TM1-004, N-(1-(2-amino-6-methylpyrimidin-4-yl)piperidin-4-yl)-N-(3-(pyrrolidin-1-yl)benzyl)acetamide] | > 40 | > 40
11 | Cc1cc(N2CCC(NCc3cccc(N4CCN(C)CC4)c3)CC2)nc(N)n1 [KI-TM1-039, 4-Methyl-6-(4-((3-(4-methylpiperazin-1-yl)benzyl)amino)piperidin-1-yl)pyrimidin-2-amine] | > 40 | > 40
12 | Cc1cc(N2CCC(NCc3cccc(-n4ccnc4)c3)CC2)nc(N)n1 [KI-TM1-014, 4-(4-((3-(1H-imidazol-1-yl)benzyl)amino)piperidin-1-yl)-6-methylpyrimidin-2-amine] | > 40 | > 40
13 | Cc1cc(N2CCC(NCc3cccc(N4CCCC4)c3)CC2)nc(Cl)n1 [KI-TM1-033, 1-(2-Chloro-6-methylpyrimidin-4-yl)-N-(3-(pyrrolidin-1-yl)benzyl)piperidin-4-amine] | 23.5 | > 40
14 | Cc1cc(N2CCC(NCc3cccc(C(C)(C)C)c3)CC2)nc(N)n1 [KI-TM1-026, 4-(4-((3-(tert-Butyl)benzyl)amino)piperidin-1-yl)-6-methylpyrimidin-2-amine] | > 40 | > 40
15 | Cc1cc(N2CCC[C@H](NCc3cccc(N4CCCC4)c3)C2)nc(N)n1 [KI-TM1-016S, (S)-4-Methyl-6-(3-((3-(pyrrolidin-1-yl)benzyl)amino)piperidin-1-yl)pyrimidin-2-amine] | 22.3 | > 40
16 | Nc1nc(Cl)cc(N2CCC(NCc3cccc(N4CCCC4)c3)CC2)n1 [KI-TM1-038, 4-Chloro-6-(4-((3-(pyrrolidin-1-yl)benzyl)amino)piperidin-1-yl)pyrimidin-2-amine] | > 40 | > 40
17 | Cc1cc(N2CCC(N(Cc3cccc(N4CCCC4)c3)C(=O)C=COCCOCCOCCN)CC2)nc(N)n1 [KI-TM1-031, N-(1-(2-Amino-6-methylpyrimidin-4-yl)piperidin-4-yl)-3-(2-(2-(2-aminoethoxy)ethoxy)-ethoxy)-N-(3-(pyrrolidin-1-yl)benzyl)propenamide] | > 40 | > 40
18 | Cc1cc(N2CCC(NC(=O)c3cccc(N4CCCC4)c3)CC2)nc(N)n1 [KI-TM1-008, N-(1-(2-amino-6-methylpyrimidin-4-yl)piperidin-4-yl)-3-(pyrrolidin-1-yl)benzamide] | > 40 | > 40
19 | Cc1cc(N2CCCC(N(Cc3cccc(N4CCCC4)c3)C(=O)C=COCCOCCOCCN)C2)nc(N)n1 (stereo not drawn) [KI-TM1-032, N-(1-(2-Amino-6-methylpyrimidin-4-yl)piperidin-3-yl)-3-(2-(2-(2-aminoethoxy)ethoxy)-ethoxy)-N-(3-(pyrrolidin-1-yl)benzyl)propenamide] | > 40 | > 40
20 | Cc1cc(N2CCC(N(CCCCCCOCCOCCOCCCCCC(=O)Nc3cccc4c3C(=O)N(C3CCC(=O)NC3=O)C4=O)Cc3cccc(N4CCCC4)c3)CC2)nc(N)n1 (stereo not drawn) [KI-TM1-043, 2-(1-(2-amino-6-methylpyrimidin-4-yl)piperidin-4-yl)-N-(2-(2,6-dioxopiperidin-3-yl)-1,3-dioxoisoindolin-4-yl)-1-(3-(pyrrolidin-1-yl)phenyl)-9,12,15-trioxa-2-azahenicosan-21-amide] | > 40 | > 40
21 | C#CCCC1(CCN(Cc2cccc(N3CCCC3)c2)C2CCN(c3cc(C)nc(N)n3)CC2)N=N1 [KI-TM1-030, 4-(4-((2-(3-(But-3-yn-1-yl)-3H-diazirin-3-yl)ethyl)(3-(pyrrolidin-1-yl)benzyl)amino)-piperidin-1-yl)-6-methylpyrimidin-2-amine] | 19.8 | > 40
22 | CCCNC(=O)N(Cc1cccc(N2CCCC2)c1)C1CCN(c2cc(C)nc(N)n2)CC1 [KI-TM1-034, 1-(1-(2-Amino-6-methylpyrimidin-4-yl)piperidin-4-yl)-3-propyl-1-(3-(pyrrolidin-1-yl)benzyl)urea] | > 40 | > 40
23 | Cc1cc(N2CCC(NCc3cccc(N4CCCCC4)c3)CC2)nc(N)n1 [KI-TM1-009, 4-methyl-6-(4-((3-(piperidin-1-yl)benzyl)amino)piperidin-1-yl)pyrimidin-2-amine] | 23.2 | > 40
24 | Cc1cc(N2CCC(NCc3cccc(N4CCCC4)c3)CC2)nc(NCCOCCOCCOCCN)n1 [KI-TM1-041, N-(2-(2-(2-(2-Aminoethoxy)ethoxy)ethoxy)ethyl)-4-methyl-6-(4-((3-(pyrrolidin-1-yl)benzyl)amino)piperidin-1-yl)pyrimidin-2-amine] | > 40 | > 40
25 | Cc1cc(N2CCC(NCc3cccc(N4CCOCC4)c3)CC2)nc(N)n1 [KI-TM1-040, 4-Methyl-6-(4-((3-morpholinobenzyl)amino)piperidin-1-yl)pyrimidin-2-amine] | > 40 | > 40
26 | Cc1cc(N2CCC(N(CCCCCCOCCOCC(=O)Nc3cccc4c3C(=O)N(C3CCC(=O)NC3=O)C4=O)Cc3cccc(N4CCCC4)c3)CC2)nc(N)n1 (stereo not drawn) [KI-TM1-044, 2-(2-((6-((1-(2-Amino-6-methylpyrimidin-4-yl)piperidin-4-yl)(3-(pyrrolidin-1-yl)benzyl)amino)hexyl)oxy)ethoxy)-N-(2-(2,6-dioxopiperidin-3-yl)-1,3-dioxoisoindolin-4-yl)acetamide] | > 40 | > 40
27 | Cc1cc(N2CCC(NCc3ccc(N4CCCC4)cc3)CC2)nc(N)n1 [KI-TM1-007, 4-methyl-6-(4-((4-(pyrrolidin-1-yl)benzyl)amino)piperidin-1-yl)pyrimidin-2-amine] | > 40 | > 40
28 | CCN(CC)c1ccc(CNC2CCN(c3cc(C)nc(N)n3)CC2)cc1 [KI-TM1-027, 4-(4-((4-(Diethylamino)benzyl)amino)piperidin-1-yl)-6-methylpyrimidin-2-amine] | > 40 | > 40
29 | Cc1cc(NCCCNCc2cccc(N3CCCC3)c2)nc(N)n1 [KI-TM1-017, 6-Methyl-N^4-(3-((3-(pyrrolidin-1-yl)benzyl)amino)propyl)pyrimidine-2,4-diamine] | > 40 | > 40
30 | Cc1cc(N2CCC(NCc3ccccc3N3CCCC3)CC2)nc(N)n1 [KI-TM1-006, 4-methyl-6-(4-((2-(pyrrolidin-1-yl)benzyl)amino)piperidin-1-yl)pyrimidin-2-amine] | > 40 | > 40
